This note sets out measurements from patent US20260014125A1, “BICYCLIC-TYPE MAT2A INHIBITOR AND USE THEREOF” (HAIHE BIOPHARMA CO., LTD., priority 2022, published 2026).

The test system of experiment [1] is human B-cell lymphoma DOHH-2 cell subcutaneous xenograft tumor. Description: In vivo anti-tumor efficacy in the DOHH-2 cell subcutaneous xenograft tumor model. The settings on record: DOHH-2 xenograft; for T/C (%) / TGI (%): BID, intragastric, female CB-17 SCID mice. The arrangement: species or system mice. On the procedure: The in vivo anti-tumor efficacy of compound 13 and AG-270 (MAT2A inhibitor,
were evaluated using a human B-cell lymphoma DOHH-2 cell subcutaneous xenograft tumor model.
The female CB-17 SCID mice used were purchased from Beijing Vital River Laboratory Animal Technology Co., Ltd. Tumor cell culture and subcutaneous inoculation: Human B-cell lymphoma DOHH-2 cells (DSMZ) were cultured in vitro in RPMI-1640 medium containing 10% fetal bovine serum and 1% […], and incubated in a 5% CO2 incubator at 37° C. When the required number of cells was reached, the cells were collected, and counted. 0.2 mL (10×10^6) of DOHH-2 cells (with matrix gel added, volume ratio of 1:1) were subcutaneously inoculated into the right back of each mouse. When the average tumor volume reached 100-150 mm^3, random grouping would begin, with 5 mice in each group. The administration group (compound 13 or compound AG-270) was performed intragastric administration twice a day (dosage shown in Table 3), while the negative control group was performed intragastric administration using the same volume of blank solvent per day.
The experimental indicator was to examine whether tumor growth was inhibited, delayed, or cured. The tumor diameter was measured twice a week using a vernier caliper. The formula for calculating tumor volume was: V=0.5a×b^2, wherein a and b indicated the long and short diameters of tumors, respectively.
The anti-tumor efficacy of the compound was evaluated using TGI (%) or relative tumor proliferation rate T/C (%).
TGI (%) reflects the tumor growth inhibition rate. Calculation of TGI (%). TGI (%)=[(1−(average tumor volume at the end of administration in the treatment group-average tumor volume at the beginning of administration in the treatment group))/(average tumor volume at the end of treatment in the negative control group-average tumor volume at the beginning of treatment in the negative control group)]×100%.
Relative tumor proliferation rate TIC (%): The calculation formula was as follows: T/C %=TRTV/CRTV×100% (TRTV: administration group RTV: CRTV: negative control group RTV). The calculation formula of the relative tumor volume (RTV) was RTV=Vt/V0, wherein V0 was the average tumor volume measured at the time of group administration (i.e. d0), Vt was the average tumor volume measured at a certain measurement, and TRTV and CRTV took the same day's data.

The next experiment concerns KP-4 cells. The experiment can be described thus: Human pancreatic cancer KP-4 cell activity inhibition test (CellTiter-Glo). The format is cell-based. Conditions: Homo sapiens, 120 h, 5 days. The essentials: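 KP-4 cells (500/well, IMDM with 10% FBS) were plated overnight, then exposed to ten compound concentrations down to 0.5 nM for 5 days at 37 °C and 5% CO2. Viability was read by CellTiter-Glo ATP content. Inhibition was normalised to no-compound and cell-free wells, and IC50 was obtained by curve fitting.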
Background: In ATP-based viability assays light output follows the ATP content of the culture.

The next experiment deals with MAT2A (Homo sapiens (Human), UniProt P31153). Description: Biochemical test: inhibition of MAT2A enzyme activity (phosphate detection, OD620). Conditions: MAT2A his-tag; 150 minutes enzymatic reaction. The gist of the method: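 His-tagged human MAT2A was preincubated 15 min with compound (10 µM top, 3-fold, 10 points, duplicate), then reacted with ATP and L-methionine for 150 min. Released phosphate was measured at OD620 after Biomol stop reagent. IC50 was fitted from inhibition relative to no-enzyme and DMSO controls.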
MAT2A, sequence (P31153 whole entry): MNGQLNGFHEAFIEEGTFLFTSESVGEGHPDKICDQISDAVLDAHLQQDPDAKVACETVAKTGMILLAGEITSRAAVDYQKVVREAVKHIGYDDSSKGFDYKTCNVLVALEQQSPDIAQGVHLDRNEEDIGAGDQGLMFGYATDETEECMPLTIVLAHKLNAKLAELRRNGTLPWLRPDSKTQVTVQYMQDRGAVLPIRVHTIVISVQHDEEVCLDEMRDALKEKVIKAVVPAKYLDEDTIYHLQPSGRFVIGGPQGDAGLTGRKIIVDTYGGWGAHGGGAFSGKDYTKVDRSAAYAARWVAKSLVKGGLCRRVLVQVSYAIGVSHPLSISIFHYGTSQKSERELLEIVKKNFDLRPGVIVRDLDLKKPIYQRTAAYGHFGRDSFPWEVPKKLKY

In the case of `CCOc1c(-c2ccc(Cl)cc2)c(=O)n(-c2ccc3nn(C)cc3c2)c2[nH]ncc12` [Compound 13], the “T/C (%)” value in experiment [1] (5 mg/kg) was 35.54%; in experiment [1] (10 mg/kg) it was 26.46%; in experiment [1] (20 mg/kg) it was 15.98%. Also, the “TGI (%)” value in experiment [1] (5 mg/kg) is on record as 68.82%; in experiment [1] (10 mg/kg), 78.48%; in experiment [1] (20 mg/kg) it was 89.67%. In experiment [1] (5, 10, 20 mg/kg BID), the “in vivo efficacy, in words” value is given as “dose-dependent in vivo efficacy”. Moreover, the IC50 was 7.4 nM in the experiment on KP-4 cells and 15.1 nM against MAT2A.

As a reminder, the IC50 is the concentration that gives 50% inhibition. A low value points to greater potency.
